Measured values reported in patent publication US20060088815A1, “Method for evaluation of endocrine disruptive action” (THE UNIVERSITY OF TOKYO, priority 2004, published 2006).

System: hippocampal tissue slice
Assay: Excitatory postsynaptic potential of hippocampal tissue slices on a multiple-electrode probe; NMDA-induced long-term depression
Assay type: cell-based, rat
Conditions: substance 1 nM perfused for 30 minutes before NMDA (30 μM, 3 minutes)
From the text: Now, an example of a specific embodiment for the above-mentioned evaluating method 1 will be illustrated. First, the preparation of a cell group and a setting method of experimental conditions are explained below. With regard to the cell group, a tissue slice which was a transversely cut in a hippocampal region along a long-axis which was cut out from a brain tissue of an adult rat using a vibratome (DSK ZERO 1; manufactured by Dosaka EM K.K.) was used. Thickness of the hippocampal tissue slice was made 300 μm.
For the measurement of an electrophysiological response of this hippocampal tissue slice, a multiple-electrode measuring apparatus MED 64 System (Alpha Med) was used. With regard to an electrode arranged in the hippocampal tissue slice, a multiple-electrode probe MED-P530A (Alpha Med) attached to this multiple-electrode measuring apparatus was used. On a substrate of this multiple-electrode probe, plural electrodes are previously arranged regularly with a predetermined interval (300 μm).
One sheet of the hippocampal tissue slice cut out by a vibratome was allowed to stand in a chamber placed on a substrate of one multiple-electrode probe and, at the same time, an artificial cerebrospinal fluid sufficiently saturated with a mixed gas of oxygen and carbon dioxide (95% oxygen gas and 5% carbon dioxide gas) was filled in the chamber whereby the hippocampal tissue slice was soaked in the artificial cerebrospinal fluid followed by being allowed to stand at room temperature for 1 hour or longer. With regard to the artificial cerebrospinal fluid, an aqueous solution containing 124 mM of NaCl, 1.25 mM of NaH2PO4.2H2O, 5 mM of KCl, 2 mM of MgSO4.7H2O, 2 mM of CaCl2, 22 mM of NaHCO3 and 10 mM of […] was used.
In this artificial cerebrospinal fluid, the hippocampal tissue slice was placed on the multiple-electrode probe so that the cells included in each of three regions comprising one dentate gyrus and two cornu ammonis regions near the surface of the hippocampal tissue slice were brought into contact with plural electrodes on the multiple-electrode probe. Thus, a stimulating electrode which applies electrical stimulation to presynaptic fiber projecting to the nerve cell group and a recording electrode which records excitatory postsynaptic potential induced by the electrical stimulation in the nerve cell group as accumulated potential are arranged for each of pyramidal cells of cornu ammonis CA1 field, pyramidal cells of cornu ammonis CA3 field and granular cells of dentate gyrus.
Electrical stimulation to a hippocampal tissue slice by a stimulating electrode was carried out by repeated application of electrical stimulation at intervals of 15 seconds in the order of a stimulating electrode arranged in a cornu ammonis CA1 field, a stimulating electrode arranged in a cornu ammonis CA3 field, a stimulating electrode arranges in a dentate gyrus and, again, a stimulating electrode arranged in a cornu ammonis CA1 field. The excitatory postsynaptic potential induced by the electrical stimulation was recorded for about 30 minutes and, after confirming that the accumulated potential was stabilized, strength of electrical stimulation applied from the stimulating electrode was set in each of the following steps. […] When the strength of the measured accumulated potential was saturated (or became constant), the strength of the saturated accumulated potential was defined as maximum (100%) and strength of electrical stimulation to be applied to the hippocampal tissue slice from the stimulating electrode was set so as to make the value 50% of the above maximum value.
In this Example, DES was used as an object substance, estradiol, which is one example of estrogen, was used as an agonist to hormone receptor and NMDA was used as a stimulant. […]

Row | Structure (SMILES) | excitatory postsynaptic potential 50 minutes after administration of NMDA, relative to that before administration of NMDA (cornu ammonis CA1 field) | excitatory postsynaptic potential 50 minutes after administration of NMDA, relative to that before administration of NMDA (cornu ammonis CA3 field) | excitatory postsynaptic potential 50 minutes after administration of NMDA, relative to that before administration of NMDA (dentate gyrus)
1 | CC/C(=C(/CC)c1ccc(O)cc1)c1ccc(O)cc1 [DES, diethylstilbestrol] | about 40% | about 75% | about 68%
2 | C[C@]12CC[C@@H]3c4ccc(O)cc4CC[C@H]3[C@@H]1CC[C@@H]2O [estradiol] | about 40% | about 55% | about 80%
